# Source: PMC6204216 (Archives of biochemistry and biophysics, 2018)
# Where two headings read alike, the source gives them in different places.
# What was measured:
# AChE [1] = target: T1, AChE (Homo sapiens, UniProt P22303); experiment: Solvent deuterium oxide kinetic isotope effect on decarbamoylation; format: biochemical; conditions: 25 °C, pH 7.0, mean ± SE
# Target sequence in this assay (P22303 32-617 isoform P22303-2 limits assumed): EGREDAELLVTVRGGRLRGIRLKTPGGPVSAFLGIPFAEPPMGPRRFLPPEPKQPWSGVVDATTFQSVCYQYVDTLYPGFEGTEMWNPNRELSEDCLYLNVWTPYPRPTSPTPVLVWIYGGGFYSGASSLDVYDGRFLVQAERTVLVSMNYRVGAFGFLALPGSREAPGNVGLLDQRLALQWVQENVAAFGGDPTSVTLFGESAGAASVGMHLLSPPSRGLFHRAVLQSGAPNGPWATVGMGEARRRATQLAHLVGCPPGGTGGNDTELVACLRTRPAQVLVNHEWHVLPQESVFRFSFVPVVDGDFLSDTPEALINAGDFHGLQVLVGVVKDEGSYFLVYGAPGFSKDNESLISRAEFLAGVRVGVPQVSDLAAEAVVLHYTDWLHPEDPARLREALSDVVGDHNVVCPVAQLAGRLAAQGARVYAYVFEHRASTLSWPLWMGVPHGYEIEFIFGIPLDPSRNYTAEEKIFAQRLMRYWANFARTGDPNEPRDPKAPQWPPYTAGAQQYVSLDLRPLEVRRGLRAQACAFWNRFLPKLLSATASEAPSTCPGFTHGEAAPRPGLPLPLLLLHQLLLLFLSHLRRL
# AChE [2] = target: T1, AChE; conditions: for k21 × 10^6 (decarbamoylation rate constant): 25 °C, absence of carbamate, mean ± SEM of n measurements
# Target sequence in this assay (P22303 32-617 isoform P22303-2 limits assumed): as above
# AChE [3] = target: T1, AChE; conditions: cited from earlier work
# Target sequence in this assay (P22303 32-614): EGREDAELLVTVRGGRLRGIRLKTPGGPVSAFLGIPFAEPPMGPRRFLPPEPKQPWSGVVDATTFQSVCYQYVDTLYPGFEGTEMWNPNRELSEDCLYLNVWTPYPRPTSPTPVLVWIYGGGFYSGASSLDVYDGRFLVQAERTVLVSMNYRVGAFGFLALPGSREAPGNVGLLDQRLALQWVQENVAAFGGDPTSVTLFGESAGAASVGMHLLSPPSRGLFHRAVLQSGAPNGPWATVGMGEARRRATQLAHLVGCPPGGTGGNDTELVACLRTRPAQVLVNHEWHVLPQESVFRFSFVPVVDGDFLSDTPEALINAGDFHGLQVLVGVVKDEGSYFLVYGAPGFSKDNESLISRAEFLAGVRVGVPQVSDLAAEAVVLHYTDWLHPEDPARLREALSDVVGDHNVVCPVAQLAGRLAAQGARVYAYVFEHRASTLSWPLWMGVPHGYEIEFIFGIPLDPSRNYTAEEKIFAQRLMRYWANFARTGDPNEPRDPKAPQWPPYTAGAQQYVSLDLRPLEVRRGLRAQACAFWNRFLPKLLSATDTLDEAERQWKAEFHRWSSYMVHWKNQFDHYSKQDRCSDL
# [4] = Stability of aqueous solutions; format: physicochemical
# AChE [5] = target: T1, AChE; experiment: Carbamoylation of AChE, qualitative observations; format: biochemical
# Target sequence in this assay (P22303 32-614): as above
# AChE in rat brain = conditions: in vivo, 37 °C; cited from earlier work
# AChE [6] = target: T1, AChE; format: biochemical
# Target sequence in this assay (P22303 32-617 isoform P22303-2 limits assumed): as the sequence (P22303 32-617 isoform P22303-2 limits assumed) above
# AChE [7] = target: T1, AChE; experiment: Literature carbamoylation and decarbamoylation of AChE; format: biochemical
# Target sequence in this assay (P22303 32-614): as the sequence (P22303 32-614) above
# AChE [8] = target: T1, AChE; conditions: after carbamoylation of hAChE; cited from earlier work
# Target sequence in this assay (P22303 32-617 isoform P22303-2 limits assumed): as the sequence (P22303 32-617 isoform P22303-2 limits assumed) above
# [9] = k12 data fitted to Eq. 1a, 25 °C
structure (smiles),measurement,setting,value
"CN(C)C(=O)Oc1cccc([N+](C)(C)C)c1 [neostigmine, reference compound]",k21 ^H2O / k21^D2O (deuterium oxide kinetic isotope effect on k21),AChE [1],2.4 ± 0.2
same,k21 × 10^6 (decarbamoylation rate constant),AChE [2]; second protocol,3600 ± 300 min^−1
CCN(C)C(=O)Oc1cccc([N+](C)(C)C)c1 [N-ethyl-N-methyl HTMA],k21 ^H2O / k21^D2O (deuterium oxide kinetic isotope effect on k21),AChE [1],1.8 ± 0.2
same,k21 × 10^6 (decarbamoylation rate constant),AChE [2]; second protocol,150 ± 20 min^−1
"CCN(CC)C(=O)OCC[N+](C)(C)C [N,N-diethylcarbamoyl choline, reference compound]","Formation of N,N-diethylcarbamoylated AChE",AChE [3],failed to detect
"CCN(C)C(=O)Cl [EMCC, N-ethyl–N-methylcarbamoyl chloride]",Stability of aqueous solutions,[4],very unstable
same,Carbamoylation of AChE,AChE [5],poorly
"CCN(CC)C(=O)F [N,N-diethyl F, N,N-diethylcarbamoyl fluoride]",k21 × 10^6 (decarbamoylation rate constant),AChE [2]; second protocol,7 ± 1 min^−1
same,"Formation of N,N-diethylcarbamoylated AChE",AChE [3],failed to detect
same,Recovery half time of AChE,AChE in rat brain,182 h
CNC(=O)Oc1cccc([N+](C)(C)C)c1 [Monomethyl neostigmine],k21,"AChE [6]; first protocol, Figure 2, paper calls estimates below 0.01 min^−1 unreliable",0.013 min⁻¹
same,k2/KD,AChE [6]; fitted to Eq. 1a,16 ± 2 min^−1μM^−1
same,Kd,AChE [6]; [9],3.2 ± 0.4 µM
same,k2 (carbamoylation),AChE [6]; [9],51 ± 2 min⁻¹
same,k21 ^H2O / k21^D2O (deuterium oxide kinetic isotope effect on k21),AChE [1]; listed as N-monomethyl HTMA,2.8 ± 0.2
same,k21 ^H2O / k21^D2O (deuterium oxide kinetic isotope effect on k21),AChE [1]; listed as N-monomethyl neostigmine,2.8
same,k21 × 10^6 (decarbamoylation rate constant),AChE [2]; second protocol,12300 ± 400 min^−1
same,R (fraction of total enzyme carbamoylated at reaction initiation),"AChE [2]; after spin column, Figure 3 fit",0.90
same,k21,"AChE [2]; second protocol, Figure 3a fit, 0.25 mM acetylthiocholine",12.9 ± 0.02 × 10^−3 min^−1
C[N+](C)(C)CCOC(N)=O [carbamoyl choline],k21 larger than that for N-monomethylcarbamoylated AChE,AChE [7],10 fold
"CCN(CC)C(=O)Oc1cccc([N+](C)(C)C)c1 [N,N-diethyl HTMA]",k21 ^H2O / k21^D2O (deuterium oxide kinetic isotope effect on k21),AChE [1],1.1 ± 0.2
same,k21 × 10^6 (decarbamoylation rate constant),AChE [2]; second protocol,16 ± 5 min^−1
C[C@@H]1CN(CCCCCCCCNC(=O)Oc2ccc3c(c2)[C@]2(C)CCN(C)[C@@H]2N3C)C[C@H](C)O1 [MF268],k21,AChE [8],too small to be measured
"CNC(=O)Oc1cccc2ccccc12 [carbaryl, reference compound]",k21 × 10^6 (decarbamoylation rate constant),AChE [2]; second protocol,11300 ± 600 min^−1
